Reference: publication PMC4111374 (Journal of Medicinal Chemistry, 2014)

Columns and labels:
[1] = system: LS174T colon cancer cells; details: earlier report; cited from earlier work
[2] = cited from earlier work
[3] = system: LS174T colon cancer cells; assay: LS174T cell proliferation; assay type: cell-based; details: for IC50: Homo sapiens, LS174T, read-out: inhibition of LS174T cell proliferation IC50, LS174T colon cancer cells, 1 to 300 nM, triplicate
[4] = target: hERG channel (Homo sapiens, UniProt Q12809); details: for interaction with hERG: [3H]-dofetilide binding assay; for ratio of IC50 for hERG inhibition to IC50 for inhibition of LS174T cell proliferation: human
hERG channel, sequence (Q12809 whole entry): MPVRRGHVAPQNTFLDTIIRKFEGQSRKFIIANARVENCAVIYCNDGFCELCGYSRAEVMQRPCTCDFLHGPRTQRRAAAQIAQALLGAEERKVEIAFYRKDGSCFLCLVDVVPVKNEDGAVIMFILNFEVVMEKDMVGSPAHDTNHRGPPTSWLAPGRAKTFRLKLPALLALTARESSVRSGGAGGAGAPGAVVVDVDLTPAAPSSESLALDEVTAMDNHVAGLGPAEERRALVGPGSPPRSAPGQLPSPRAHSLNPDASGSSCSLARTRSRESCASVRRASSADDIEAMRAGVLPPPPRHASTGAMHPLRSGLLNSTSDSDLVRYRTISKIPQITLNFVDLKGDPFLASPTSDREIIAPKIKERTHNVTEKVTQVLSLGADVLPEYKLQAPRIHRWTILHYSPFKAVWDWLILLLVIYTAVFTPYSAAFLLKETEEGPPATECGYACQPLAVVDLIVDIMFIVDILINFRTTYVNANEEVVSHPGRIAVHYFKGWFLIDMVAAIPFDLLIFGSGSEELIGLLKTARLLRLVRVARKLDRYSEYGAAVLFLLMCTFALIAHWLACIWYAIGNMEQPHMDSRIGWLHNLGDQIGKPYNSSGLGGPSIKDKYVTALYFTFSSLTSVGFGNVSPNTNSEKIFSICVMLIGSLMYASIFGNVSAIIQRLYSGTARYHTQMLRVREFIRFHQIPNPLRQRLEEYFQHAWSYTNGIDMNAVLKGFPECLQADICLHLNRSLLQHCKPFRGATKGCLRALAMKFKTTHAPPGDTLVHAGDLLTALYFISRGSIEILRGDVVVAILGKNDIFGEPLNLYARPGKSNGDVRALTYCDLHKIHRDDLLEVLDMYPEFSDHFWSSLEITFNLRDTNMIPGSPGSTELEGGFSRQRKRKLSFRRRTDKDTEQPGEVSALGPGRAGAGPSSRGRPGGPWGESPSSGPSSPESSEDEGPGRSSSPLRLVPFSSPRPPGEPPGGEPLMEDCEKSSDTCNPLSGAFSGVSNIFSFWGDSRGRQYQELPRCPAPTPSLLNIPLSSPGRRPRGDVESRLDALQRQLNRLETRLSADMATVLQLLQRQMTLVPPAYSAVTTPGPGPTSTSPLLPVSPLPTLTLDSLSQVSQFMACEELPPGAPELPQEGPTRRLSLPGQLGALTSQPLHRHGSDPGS

[5] = water solubility of hydrochloride salts; assay type: physicochemical

| Compound | interaction with hERG [4] | ratio of IC50 for hERG inhibition to IC50 for inhibition of LS174T cell proliferation [4] | other results |
| --- | --- | --- | --- |
| CN(C)c1ccc(/C=C/c2c(F)cccc2F)cc1 [FIDAS 1a, (E)-4-(2′,6′-difluorostyryl)-N,N-dimethylaniline] |  |  | in vitro activity in LS174T cells [1]: low micromolar range; half-life in vivo [2]: reasonable half-life; oral bioavailability ([2]; in vivo): good oral bioavailability |
| CNc1ccc(/C=C/c2c(F)cccc2F)cc1 [FIDAS 1b] | did not interact appreciably with hERG | 6.5 × 10^3 | IC50 [3]: < 10 nM; IC50 for the inhibition of LS174T cells relative to 1a ([3]; LS174T cells): 4 fold |
| CN(C)c1ccc(/C=C/c2c(F)cccc2Cl)cc1 [FIDAS 2a] |  |  | in vitro activity relative to 3a ([3]; LS174T cells, relative to 3a): 10 fold |
| CNc1ccc(/C=C/c2c(F)cccc2Cl)cc1 [FIDAS 2b] | did not interact appreciably with hERG | 6.6 × 10^3 | IC50 [3]: < 10 nM; IC50 for the inhibition of LS174T cells relative to 1a ([3]; LS174T cells): 4 fold |
| CN(C)c1ccc(/C=C/c2c(F)cccc2Cl)nc1 [FIDAS 5a, (E)-2-(2′-Chloro-6′-fluorostyryl)-5-(N,N-dimethylamino)pyridine] |  | 1.0 × 10^3 |  |
| CN(C)c1ccc(/C=C/c2c(F)cccc2Cl)cn1 [FIDAS 8a, (E)-5-(2′-Chloro-6′-fluorostyryl)-2-(N,N-dimethylamino)pyridine] | did not interact appreciably with hERG | 12.7 × 10^3 | water solubility of hydrochloride salt [5]: water-soluble |
| CNc1ccc(/C=C/c2c(F)cccc2Cl)cn1 [FIDAS 8b, (E)-5-(2′-Chloro-6′-fluorostyryl)-2-(N-methylamino)pyridine] | did not interact appreciably with hERG | 5.0 × 10^3 | water solubility of hydrochloride salt [5]: water-soluble |
| CN(C)c1ncc(/C=C/c2c(F)cccc2F)cn1 [FIDAS 10a, (E)-5-(2′,6′-Difluorostyryl)-2-(N,N-dimethylamino)pyrimidine] |  | 0.5 × 10^3 |  |
